In patent US20240327359A1, “3-ISOXAZOLIDINONE COMPOUND, PREPARATION METHOD, HERBICIDAL COMPOSITION AND APPLICATION THEREOF” (QINGDAO KINGAGROOT CHEMICAL COMPOUND CO., LTD., priority 2021, published 2024):

Assays:
Type in all cases: in vivo
[1] = test system: spinach, radish, Chinese cabbage, sesame, rape, cucumber, watermelon, melon, pumpkin, cassava, soybean, kidney bean, cowpea, common bean, hyacinth bean, sponge …; assay: Field test, crop safety; details: applied after planting and pre-emergence at 300 g a.i./ha
[2] = test system: Veronica didyma; assay: Weeding effect in pre-emergence stage; details: 2 weeks
Text: (§1) The activity level criteria for plant damage (i.e., growth control rate) are as follows:
(§2) The above growth control rates are fresh weight control rates.
(§3) Monocotyledonous and dicotyledonous weed seeds (Descurainia sophia, Capsella bursa-pastoris, Abutilon theophrasti, Galium aparine, Stellaria media, Lithospermum arvense, Rorippa indica, Alopecurus aequalis, Alopecurus japonicus, Eleusine indica, Beckmannia syzigachne, Sclerochloa dura, Phleum paniculatum, Veronica didyma, Bromus japonicus, Aegilops tauschii, Phalaris arundinacea, Amaranthus retroflexus, Chenopodiaceae, Commelina communis, Sonchus arvensis, Convolvulus arvensis, Cirsium setosum, Solanumnigrum, Acalypha australis, Digitaria sanguinalis, Echinochloa crusgalli, Setaria viridis, Setaria glauca, Leptochloa chinensis, Monochoria vaginalis, Sagittaria trifolia, Scirpus juncoides, Cyperus rotundus, Cyperus iria, Cyperus difformis, Fimbristylis, Portulaca oleracea, Xanthium sibiricum, Pharbitis nil, Conyza Canadensis, etc.) and major crop seeds (wheat, corn, rice, soybean, cotton, oilseed rape, millet, sorghum, potato, sesame, ricinus, etc.) were placed in plastic pots filled with soil, then covered with 0.5-2 cm of soil, allowed to grow in a good greenhouse environment. The test plants were treated on the day of sowing. The tested compounds of the present invention were respectively dissolved in acetone, then added with Tween 80, diluted with a certain amount of water to obtain a solution of a certain concentration, and sprayed by a spray tower onto the plants. After the application, the plants were cultured for 2 weeks in the greenhouse, and then the experimental results of the weeding were recorded. The doses of the used compounds were 3, 6, 12, 24, 48 g ai./mu (1 mu=1/15 ha), and the averages were obtained from three replicates.

[3] = test system: Echinochloa crusgalli; assay: Weeding effect in pre-emergence stage; details: 2 weeks
Text: as §1, §2, §3

[4] = test system: Lolium perenne; assay: Weeding effect in pre-emergence stage; details: 2 weeks
Text: as §1, §2, §3

[5] = test system: Leptochloa chinensis; assay: Weeding effect in pre-emergence stage; details: 2 weeks
Text: as §1, §2, §3

[6] = test system: Descurainia sophia; assay: Weeding effect in pre-emergence stage; details: 2 weeks
Text: as §1, §2, §3

[7] = test system: Echinochloa crusgalli, Leptochloa chinensis, Digitaria sanguinalis, Descurainia Sophia, Capsella bursa-pastoris, Galium aparine, Stellaria media, Lolium …; assay: Field test, weed control; details: applied after planting and pre-emergence at 300 g a.i./ha

How did the “crop safety in field test” value [1] turn out when `CC1(C)CON(Cc2ccc(Cl)cc2Br)C1=O` [Compound 1] was run?
The value was “safe”.

What about the “weeding effect in pre-emergence stage, activity level (growth control rate)” value (from here on “weeding effect in pre-emergence stage”) ([2]; 6 g a.i./mu) of the same compound?
The value was 8 (Level 8: growth control rate is greater than or equal to 80% and less than 100%).

And the “weeding effect in pre-emergence stage” value ([2]; 12 g a.i./mu)?
Its value is 9.

What about the “weeding effect in pre-emergence stage” value ([2]; 24 g a.i./mu) of the same compound?
The value was 9.

What about the “weeding effect in pre-emergence stage” value ([3]; 3 g a.i./mu) of the same compound?
The value was 8 (Level 8: growth control rate is greater than or equal to 80% and less than 100%).

What about the “weeding effect in pre-emergence stage” value ([3]; 6 g a.i./mu) of the same compound?
Its value is 9.

And the “weeding effect in pre-emergence stage” value ([3]; 12 g a.i./mu)?
The value was 9.

And the “weeding effect in pre-emergence stage” value ([3]; 24 g a.i./mu)?
The value was 9.

What about the “weeding effect in pre-emergence stage” value ([4]; 6 g a.i./mu) of the same compound?
Its value is 2 (Level 2: growth control rate is greater than or equal to 15% and less than 30%).

And the “weeding effect in pre-emergence stage” value ([4]; 24 g a.i./mu)?
Its value is 9.

What about the “weeding effect in pre-emergence stage” value ([5]; 3 g a.i./mu) of the same compound?
The value was 9.

What about the “weeding effect in pre-emergence stage” value ([5]; 6 g a.i./mu) of the same compound?
Its value is 9.

What about the “weeding effect in pre-emergence stage” value ([5]; 12 g a.i./mu) of the same compound?
The value was 9.

What about the “weeding effect in pre-emergence stage” value ([5]; 24 g a.i./mu) of the same compound?
The value was 9.

What about the “weeding effect in pre-emergence stage” value ([6]; 3 g a.i./mu) of the same compound?
Its value is 7 (Level 7: growth control rate is greater than or equal to 70% and less than 80%).

What about the “weeding effect in pre-emergence stage” value ([6]; 6 g a.i./mu) of the same compound?
The value was 9.

And the “weeding effect in pre-emergence stage” value ([6]; 12 g a.i./mu)?
The value was 9.

What about the “weeding effect in pre-emergence stage” value ([6]; 24 g a.i./mu) of the same compound?
Its value is 9.

What about the “control of major weeds in field test” value [7] of the same compound?
Its value is “effectively controls”.
